Experimental data reported in patent US4474800A, “Epoxysuccinyl amino acid derivatives” (Taisho Pharmaceutical Co., Ltd., priority 1980, dated 1984).
One block for each molecule: values may come before it.

Tests used:
papain = target: T1, papain (Carica papaya, UniProt P00784); assay: Papain inhibitory activity (method of K. Hanada et al.); format: biochemical; conditions: papain 80 μg/ml, Sigma, twice crystallized
T1 construct: purchased Sigma Chem. Co
T1 sequence (P00784 134-345): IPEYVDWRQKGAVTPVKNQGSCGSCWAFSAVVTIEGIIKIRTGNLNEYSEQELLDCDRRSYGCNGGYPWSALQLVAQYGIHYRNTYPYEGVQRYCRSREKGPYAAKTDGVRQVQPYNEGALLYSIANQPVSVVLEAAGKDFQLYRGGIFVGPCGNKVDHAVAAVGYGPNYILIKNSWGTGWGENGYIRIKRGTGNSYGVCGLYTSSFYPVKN
Protocol: Papain inhibitory activity of the compounds of the present invention was assayed by the method of K. Hanada et al. [Agric. Biol. Chem., 42, (3) 523 (1978)] using papain (80 μg/ml, Sigma Chem. Co.) after twice crystallization.

[1] = target: T2, CANP prepared from a muscle of hereditary muscular dystrophy chicken (Gallus gallus, UniProt P00789); assay: CANP inhibitory activity (method of Ishiura et al.); format: biochemical; conditions: 50% inhibition in molar ratio to the enzyme
T2 construct: from tissue; host or cells: muscle of hereditary muscular dystrophy chicken
T2 sequence (P00789 1-705): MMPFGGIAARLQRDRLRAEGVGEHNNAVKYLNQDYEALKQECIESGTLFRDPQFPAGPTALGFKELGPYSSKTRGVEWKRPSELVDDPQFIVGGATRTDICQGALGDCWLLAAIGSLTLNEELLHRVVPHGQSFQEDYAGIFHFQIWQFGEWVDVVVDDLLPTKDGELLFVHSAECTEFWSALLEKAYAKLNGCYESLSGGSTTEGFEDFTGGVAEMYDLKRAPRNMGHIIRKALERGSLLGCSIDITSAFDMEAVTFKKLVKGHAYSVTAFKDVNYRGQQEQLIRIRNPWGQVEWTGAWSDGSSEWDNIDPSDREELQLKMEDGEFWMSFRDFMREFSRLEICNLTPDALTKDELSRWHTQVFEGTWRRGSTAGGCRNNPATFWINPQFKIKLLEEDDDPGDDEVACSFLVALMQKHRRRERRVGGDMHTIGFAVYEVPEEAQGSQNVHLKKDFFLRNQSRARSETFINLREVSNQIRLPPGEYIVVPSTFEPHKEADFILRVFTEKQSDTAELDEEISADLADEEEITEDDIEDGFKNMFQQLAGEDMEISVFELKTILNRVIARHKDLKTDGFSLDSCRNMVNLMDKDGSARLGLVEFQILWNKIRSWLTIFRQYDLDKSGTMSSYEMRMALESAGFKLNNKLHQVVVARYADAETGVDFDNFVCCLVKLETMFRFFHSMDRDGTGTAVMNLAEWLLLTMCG
Protocol: Their muscular dystrophy inhibitory activity was assayed by the method of Ishiura et al., [J. of Biochem., 84, 225 (1978)] using CANP prepared from a muscle of hereditary muscular dystrophy chicken, and the resulting value for 50% inhibition in the molar ratios for the enzyme expressed as ID50 (mole/mole) is shown in Table 1 below.

[2] = Concentration in rat plasma after subcutaneous administration; format: in vivo; conditions: sc, rats, 50 mg/kg, an hour after administration
Protocol: The compounds of the present invention are better absorbed by the subcutaneous route in mammals such as rats or rabbits, as compared with the epoxysuccinic acid derivatives of the German Patent Laid Open Application described above and Chemical Abstracts, 87, 68129a (1977). To determine absorption, these compounds were administered subcutaneously to rats at a dose of 50 mg/kg, and the concentration of the test compound in rat plasma at an hour after the administration is shown in following Table 1.

Structure (SMILES): CC(C)C[C@H](NC(=O)C1OC1C(=O)O)C(=O)NCCCCN (mixture of isomers) [Compound 12, N-[N-(DL-3-trans-carboxyoxirane-2-carbonyl)-L-leucyl]-1,4-diaminobutane]
Papain inhibitory activity ID50 (amount of inhibitor for 50% inhibition) (papain): 0.106 µg
CANP Inhibitory Activity ID50 (mole/mole) [1]: 55 mole/mole
concentration at 1 h [2]: 25000 ng/mL

Structure (SMILES): CC[C@H](C)[C@H](NC(=O)C1OC1C(=O)OCc1ccccc1)C(=O)NCCCCNC(=O)OCc1ccccc1 (mixture of isomers) [Compound 5, N-[N-(DL-3-benzyloxycarbonyloxirane-2-carbonyl)-L-isoleucyl]-N'-benzyloxycarbonyl-1,4-diaminobutane]
Papain inhibitory activity ID50 (amount of inhibitor for 50% inhibition) (papain): 0.323 µg
CANP Inhibitory Activity ID50 (mole/mole) [1]: 92 mole/mole
concentration at 1 h [2]: 1400 ng/mL

Structure (SMILES): CC(C)C[C@H](NC(=O)C1OC1C(=O)OCc1ccccc1)C(=O)NCCCCCCCNC(=O)OCc1ccccc1 (mixture of isomers) [Compound 1, N-[N-(DL-3-trans-benzyloxycarbonyloxirane-2-carbonyl)-L-leucyl]-N'-benzyloxycarbonyl-1,7-diaminoheptane]
Papain inhibitory activity ID50 (amount of inhibitor for 50% inhibition) (papain): 0.302 µg

Structure (SMILES): CC(C)C[C@H](NC(=O)C1OC1C(=O)O)C(=O)NCCCCNC(=O)OCc1ccccc1 (mixture of isomers) [Compound 11, N-[N-(DL-3-trans-carboxyoxirane-2-carbonyl)-L-leucyl]-N'-benzyloxycarbonyl-1,4-diaminobutane]
Papain inhibitory activity ID50 (amount of inhibitor for 50% inhibition) (papain): 0.118 µg
CANP Inhibitory Activity ID50 (mole/mole) [1]: 19 mole/mole
concentration at 1 h [2]: 13000 ng/mL

Structure (SMILES): CC(C)C[C@H](NC(=O)C1OC1C(=O)OCc1ccccc1)C(=O)NCCCCNC(=O)c1ccccc1 (mixture of isomers) [Compound 9, N-[N-(DL-3-trans-benzyloxycarbonyloxirane-2-carbonyl)-L-leucyl]-N'-benzoyl-1,4-diaminobutane]
Papain inhibitory activity ID50 (amount of inhibitor for 50% inhibition) (papain): 0.181 µg
CANP Inhibitory Activity ID50 (mole/mole) [1]: 89 mole/mole
concentration at 1 h [2]: 1300 ng/mL

Structure (SMILES): CC(C)[C@H](NC(=O)C1OC1C(=O)OCc1ccccc1)C(=O)NCCCCNC(=O)OCc1ccccc1 (mixture of isomers) [Compound 4, N-[N-(DL-3-trans-benzyloxycarbonyloxirane-2-carbonyl)-L-valyl]-N'-benzyloxycarbonyl-1,4-diaminobutane]
Papain inhibitory activity ID50 (amount of inhibitor for 50% inhibition) (papain): 0.436 µg
CANP Inhibitory Activity ID50 (mole/mole) [1]: 113 mole/mole
concentration at 1 h [2]: 1200 ng/mL

CANP Inhibitory Activity ID50 (mole/mole) [1]: 580 mole/mole
Structure (SMILES): CCOC(=O)C1OC1C(=O)N[C@@H](CC(C)C)C(=O)OCc1ccccc1 (stereo partly drawn) [C, N--(3ethoxy-carbonyloxirane-2-carbonyl)-L-leucine benzyl ester, reference compound]

CANP Inhibitory Activity ID50 (mole/mole) [1]: 5,400 mole/mole
Structure (SMILES): CCOC(=O)[C@H]1O[C@@H]1C(=O)O (relative stereo) [A, Ethyl hydrogen epoxysuccinate, reference compound]

CANP Inhibitory Activity ID50 (mole/mole) [1]: 4,600 mole/mole
Structure (SMILES): CC(C)C[C@H](NC(=O)C1OC1C(=O)O)C(=O)O (stereo partly drawn) [E, N--(3carboxyoxirane-2-carbonyl)-L-leucine, reference compound]

CANP Inhibitory Activity ID50 (mole/mole) [1]: 410 mole/mole
Structure (SMILES): O=C(O)[C@H]1O[C@@H]1C(=O)OCc1ccccc1 (relative stereo) [B, Benzyl hydrogen epoxysuccinate, reference compound]

Structure (SMILES): CC(C)C[C@H](NC(=O)C1OC1C(=O)OCc1ccccc1)C(=O)NCCCCCNC(=O)OCc1ccccc1 (mixture of isomers) [Compound 2, N-[N-(DL-3-trans-benzyloxycarbonyloxirane-2-carbonyl)-L-leucyl]-N'-benzyloxycarbonyl-1,5-diaminopentane]
Papain inhibitory activity ID50 (amount of inhibitor for 50% inhibition) (papain): 0.481 µg
CANP Inhibitory Activity ID50 (mole/mole) [1]: 121 mole/mole
concentration at 1 h [2]: 1500 ng/mL

Structure (SMILES): CC(C)C[C@H](NC(=O)C1OC1C(=O)OCc1ccccc1)C(=O)NCCCCNC(=O)OCc1ccccc1 (mixture of isomers) [Compound 10, N-[N-(DL-3-trans-benzyloxycarbonyloxirane-2-carbonyl)-L-leucyl]-N'-benzyloxycarbonyl-1,4-diaminobutane]
Papain inhibitory activity ID50 (amount of inhibitor for 50% inhibition) (papain): 0.260 µg
CANP Inhibitory Activity ID50 (mole/mole) [1]: 78 mole/mole
concentration at 1 h [2]: 1600 ng/mL

Structure (SMILES): CC(C)C[C@H](NC(=O)C1OC1C(=O)OC1CCCCC1)C(=O)NCCCCNC(=O)OCc1ccccc1 (mixture of isomers) [Compound 6, N-[N-(DL-3-trans-cyclohexyloxycarbonyloxirane-2-carbonyl)-L-leucyl]-N'-benzyloxycarbonyl-1,4-diaminobutane]
Papain inhibitory activity ID50 (amount of inhibitor for 50% inhibition) (papain): 0.142 µg
CANP Inhibitory Activity ID50 (mole/mole) [1]: 75 mole/mole
concentration at 1 h [2]: 1500 ng/mL

Structure (SMILES): CC(=O)NCCCCNC(=O)[C@H](CC(C)C)NC(=O)C1OC1C(=O)OCc1ccccc1 (mixture of isomers) [Compound 8, N-[N-(DL-3-trans-benzyloxycarbonyloxirane-2-carbonyl)-L-leucyl]-N'-acetyl-1,4-diaminobutane]
Papain inhibitory activity ID50 (amount of inhibitor for 50% inhibition) (papain): 0.123 µg
CANP Inhibitory Activity ID50 (mole/mole) [1]: 100 mole/mole
concentration at 1 h [2]: 1800 ng/mL

Structure (SMILES): CC(C)C[C@H](NC(=O)C1OC1C(=O)OCc1ccccc1)C(=O)NCCNC(=O)OCc1ccccc1 (mixture of isomers) [Compound 3, N-[N-(DL-3-trans-benzyloxycarbonyloxirane-2-carbonyl)-L-leucyl]-N'-benzyloxycarbonyl-1,2-diaminoethane]
Papain inhibitory activity ID50 (amount of inhibitor for 50% inhibition) (papain): 0.203 µg

Structure (SMILES): CC(C)C[C@H](NC(=O)C1OC1C(=O)OC1CCCC1)C(=O)NCCCCNC(=O)OCc1ccccc1 (mixture of isomers) [Compound 7, N-[N-(DL-3-trans-cyclopentyloxycarbonyloxirane-2-carbonyl)-L-leucyl]-N'-benzyloxycarbonyl-1,4-diaminobutane]
Papain inhibitory activity ID50 (amount of inhibitor for 50% inhibition) (papain): 0.164 µg
